For series [1], the system named is rats in obese model. The series can be described thus: Effect on BMI of rats in obese model (formula feed). It is filed as in vivo, SD rats. The following applies: for BMI / BMI of animals compared with the model group (in words): 4 weeks; for BMI: model group 7.73 ± 0.27. An excerpt: Except the blank group and the model group, each group had three subgroups: low dose, middle dose, and high dose. There were 6 animals in each subgroup.
The animals in the blank group were fed with a common feed every day. The animals in each group except the blank group were fed with a formula feed every day. The formula feed contained 5% of cholesterol, 6% of sucrose, 20% of egg yolk, 6% of peanut butter, 12% of whole milk powder, 6% of sesame oil (the percentage was by mass) and other ingredients of the common feed.
Each test drug was mixed with 5% methylcellulose solution; the animals in each group except the blank group and the model group were administered intragastrically respectively with a low dose of 100 mg/kg, a middle dose of 400 mg/kg and a high dose of 1,600 mg/kg; the animals in the blank group and the model group were not administered with the test drug and they were administered intragastrically with the same amount of 5% methylcellulose solution respectively. The intragastric administration was conducted once a day continuously for 4 weeks.
During the test process, the animals in each group were able to eat normally without anorexia. The stool characteristics were normal and no obvious diarrhea occurred.
After the last drug administration, the animals in each group were fasted for 12 h, during which water was provided, and then the animals were weighed.
Body length (distance from the nose to the anus) was measured after the animals were anesthetized with sodium pentobarbital and body mass index (BMI) (BMI=weight (kg)÷(height (m))^2) was calculated.
Statistical analysis was conducted by using the data in each group and the main results were screened and shown in Table 3 (Note: some test drugs in the table only list the middle-dose subgroups).

Series [2] concerns patients diagnosed with gastric ulcer or duodenal ulcer. The series can be described thus: Routine examination indicators and digestive function before and after drug treatment (safety). To be noted: after treatment, 4 weeks. It is filed as in vivo, human. The source says:
(§1) Efficacy and safety of the compound of the present disclosure in treating ulcers were studied in patients suffering from gastric ulcer or duodenal ulcer.
(§2) The dosage was based on a standard dosage of 3 g per day and should be increased or decreased according to individual conditions of the patients.
The number of red blood cells, the number of white blood cells, ALT, AST, serum creatinine, urine protein and other laboratory test items were checked before and after treatment. Routine clinical diagnostic criterias were used to determine whether the test items were normal and the normal rate was calculated. Normal rate of test indicators=number of patients with normal test indicators÷total number of patients in this group×100%
Effects of the drug on normal digestive function of the patients were also investigated before and after treatment by determining the rate of loose stool and the rate of constipation: Rate of loose stool=number of patients with loose stool÷total number of patients in this group×100%; and Rate of constipation=number of patients with constipation÷total number of patients in this group×100%.

Series [3] shares this test system. The following applies: 4 weeks.
Description: as §1, §2
The number of ulcer foci and the area of ulcer foci (mm^2) of each patient were checked before and after the treatment, and the efficacy after treatment was judged according to the following criteria:
Completely healed: after the treatment, the ulcers and surrounding inflammation all disappeared after an endoscopic examination;
Basically healed: after the treatment, the ulcers disappeared in an endoscopic examination, but there was still inflammation; and partially healed: after the treatment, the area of the ulcers was reduced by 50% or more in an endoscopic examination; and
Unhealed: after the treatment, the area of the ulcers was reduced by less than 50% in an endoscopic examination.
The healing rate was used as an indicator of efficacy. Healing rate=(number of completely healed patients+number of basically healed patients)÷total number of patients in this group×100%.

The conditions of series [4]: for Rate of weight change: after treatment vs before, 4 weeks.
Description: as §2
Weight changes of patients before and after treatment were also investigated: Rate of weight change=(weight after treatment−weight before treatment)÷weight before treatment×100%.

The subject of series [5] is persons suffering from weight imbalance.
[6] abbreviates: middle dose 400 mg/kg intragastrically once a day.

Like-named read-outs stand apart in the source and are kept apart here.

`COc1ccc(-c2cc(=O)c3c(O)cc(O[C@@H]4O[C@H](CO[C@@H]5O[C@@H](C)[C@H](O)[C@@H](O)[C@H]5O)[C@@H](O)[C@H](O)[C@H]4O)cc3o2)cc1O` [diosmin, reference compound]: the BMI in series [1] (setting [6]) is 7.60 ± 0.39 kg/m^2. For the same compound, the “BMI of animals compared with the model group (in words)” value in series [1] (obese model rats) was “no significant difference”.
As to dosmalfate [compound 3], the “Normal rate of ALT” value is listed as 90.0% in series [2] (Group 0.5 g); 94.4% in series [2] (Group 1 g); 91.9% in series [2] (Group 3 g); 90.0% in series [2] (Group 9 g); 100.0% in series [2] (Group 18 g). Moreover, the “Normal rate of AST” value in series [2] (Group 0.5 g) stood at 100.0%; in series [2] (Group 1 g), 100.0%; in series [2] (Group 3 g) it was 94.6%; in series [2] (Group 9 g), 90.0%; in series [2] (Group 18 g), 100.0%. The “Normal rate of red blood cells” value in series [2] (Group 0.5 g) is 100.0%; in series [2] (Group 1 g) it was 94.4%; in series [2] (Group 3 g), 94.6%; in series [2] (Group 9 g) it was 90.0%; in series [2] (Group 18 g) it was 80.0%. The “Normal rate of serum creatinine” value in series [2] (Group 0.5 g) was determined as 100.0%; in series [2] (Group 1 g) it was 100.0%; in series [2] (Group 3 g) it was 94.6%; in series [2] (Group 9 g) it was 100.0%; in series [2] (Group 18 g), 100.0%. Also, the “Normal rate of urine protein” value in series [2] (Group 0.5 g) is listed as 100.0%; in series [2] (Group 1 g), 94.4%; in series [2] (Group 3 g) it was 94.6%; in series [2] (Group 9 g), 100.0%; in series [2] (Group 18 g), 100.0%. The “Normal rate of white blood cells” value in series [2] (Group 0.5 g) is listed as 100.0%; in series [2] (Group 1 g), 100.0%; in series [2] (Group 3 g) it was 91.9%; in series [2] (Group 9 g) it was 100.0%; in series [2] (Group 18 g), 80.0%. The Rate of constipation in series [2] (Group 0.5 g) amounted to 0.0%; in series [2] (Group 1 g), 0.0%; in series [2] (Group 3 g), 2.7%; in series [2] (Group 9 g) it was 0.0%; in series [2] (Group 18 g) it was 0.0%. Also, the “Rate of loose stool” value in series [2] (Group 0.5 g), in series [2] (Group 1 g), in series [2] (Group 3 g), in series [2] (Group 9 g) and in series [2] (Group 18 g) was 0.0% in each case. Moreover, the “Healing rate of ulcers” value in series [3] (Group 0.5 g/day, 10 patients) was 30.0%; in series [3] (Group 1 g/day, 18 patients), 55.6%; in series [3] (Group 3 g/day, 37 patients) it was 62.2%; in series [3] (Group 9 g/day, 10 patients) it was 80.0%; in series [3] (Group 18 g/day, 5 patients), 80.0%. Besides, the “Rate of weight change” value was −4.2% in series [4] (Group 0.5 g); −5.3% in series [4] (Group 1 g); −7.0% in series [4] (Group 3 g); −7.1% in series [4] (Group 9 g); −3.8% in series [4] (Group 18 g). Further, the “Effect on weight of ulcer patients (in words)” value in series [4] (each dosage group, after 4 weeks of administration) is listed as “weight loss to varing degrees”. Further, the BMI in series [1] (high dose 1,600 mg/kg intragastrically once a day) amounted to 5.85 ± 0.23 kg/m^2; in series [1] (low dose 100 mg/kg intragastrically once a day), 6.72 ± 0.32 kg/m^2; in series [1] (setting [6]) it was 6.06 ± 0.29 kg/m^2. Moreover, in series [1] (obese model rats), the “BMI of animals compared with the model group (in words)” value is “significantly reduced”. The “Relative effectiveness on BMI at the same dose (in words)” value in series [1] (obese model rats, same dose) is “more effective than compound 1 and compound 2”. In series [5] (A person, 680 μmol/L before, 3 g three times a day, two months, no uric acid-lowering drug), the “Uric acid level after administration” value was 600 µmol/L. The “BMI index after administration” value was determined as 25.7 in series [5] (A person, BMI 29 before, 1.5 g three times a day, three months); 28.2 in series [5] (A person, BMI 32 before, 3 g three times a day, two months); 22 in series [5] (Person, BMI 25 before, 1 g twice a day, two months). Also, the “Body weight after administration” value in series [5] (Person, obesity and hyperuricemia, 85 kg before, 3 g three times a day, two months) came to 75 kg; in series [5] (Person, polycystic ovary syndrome, 62 kg before, 1.5 g three times a day, three months), 55 kg.
Take sucralfate [reference compound]: in series [1] (setting [6]), the BMI was 7.87 ± 0.34 kg/m^2. For the same compound, the “BMI of animals compared with the model group (in words)” value in series [1] (obese model rats) was “no significant difference”.

The record behind these values is patent US12274710B2, “Compound for regulating body weight imbalance, composition thereof and application thereof” (GUANGZHOU CENTURY CLINICAL RESEARCH CO., LTD, priority 2019, dated 2025).
